Here are results for 1 molecule from patent US11491117B2, “Compounds for the prevention and treatment of glucose intolerance related conditions and obesity” (SORBONNE UNIVERSITÉ, priority 2017, dated 2022).

Assay [1] has as its system Goto-Kakizaki (GK) rats. Kind of assay: Pancreas histology and immunohistochemistry of chronically treated GK rats. The class given is in vivo, rat. How it is done: Pancreas sections were labeled either with Hematoxylin-Eosin and Immunohistochemistry to determine insulin positive area (FIG. 9F) and treated with Ki 67 and DAPI to stain and quantify proliferative nuclei (FIG. 9G). […] All measures are from 6 rats per group. Data were analyzed using the unpaired Mann-Whitney test. […] Tissues were drop-fixed in 4% paraformaldehyde (Sigma-Aldrich, Saint Quentin Fallavier, France) immediately after collection and put through an automated carousel processor for dehydration, clearing, and paraffin embedding (Leica, Nanterre, France). Sections were prepared for liver (6 μm), pancreas (6 μm) and adipose tissue ([…]) and mounted on slides (DPX polymerizing mountant, Sigma-Aldrich, Saint Quentin Fallavier, France). Hematoxylin and Eosin (H&E) was used to evaluate tissue morphology. Epitope-specific antibodies were used for immunohistochemistry detection of insulin on pancreas sections (Dako, Saint Aubin, France). […] Quantitative expression of all immunostainings was performed using positive pixels algorithm (Indica Labs, Corrales, N. Mex.). […] Results are expressed as percentage of positive pixels, within islets where indicated. The quantification method is an automated observer-independent process based on section scanning and application of publicly available algorithms. […]

The test system of assay [2] is C57BL/6J mice fed CHD or HFD. Kind of assay: Histology and immunohistochemistry of liver and pancreas of chronically treated mice. It is filed as in vivo, mouse. The settings on record: for islet size (immunohistochemistry) / insulin positive area: mean±SEM. How it is done: Tissues were drop-fixed in 4% paraformaldehyde (Sigma-Aldrich, Saint Quentin Fallavier, France) immediately after collection and put through an automated carousel processor for dehydration, clearing, and paraffin embedding (Leica, Nanterre, France). Sections were prepared for liver (6 μm), pancreas (6 μm) and adipose tissue ([…]) and mounted on slides (DPX polymerizing mountant, Sigma-Aldrich, Saint Quentin Fallavier, France). Hematoxylin and Eosin (H&E) was used to evaluate tissue morphology. Epitope-specific antibodies were used for immunohistochemistry detection of insulin on pancreas sections (Dako, Saint Aubin, France).
For Oil redO (ORO), livers were snap frozen in OCT (VWR, Fontenay-sous-Bois, France) and cut into 7-μm sections using a cryostat. Sections were rehydrated in PBS (Sigma-Aldrich, St Quentin, France) and incubated with an ORO staining solution (Sigma Aldrich, St Quentin, France). Slides were washed in deionized water and mounted with Vectashield mounting medium (Laboratoires Eurobio Abcys, LesUlis, France).
For immunohistochemistry analysis, pancreas sections were quenched with 3% H2O2, washed with TBS+0.1% (v/v) Tween-20 (or 0.05% v/v Triton X-100 for nuclear epitopes), blocked with TBS+3% (w/v) BSA and incubated with diluted primary antibodies and then with HRP-conjugated secondary antibody (Bio-Rad, Marnes-la-Coquette, France). Chromogenic detection was carried out with the DAB chromogen kit (Dako, Saint Aubin, France). Nuclei were counterstained with hematoxylin. Quantitative expression of all immunostainings was performed using positive pixels algorithm (Indica Labs, Corrales, N. Mex.). For double immunostaining and immunofluorescence analyses, pancreas sections were stained for insulin as described above and co-stained with i) primary Anti-Ki67 antibody (ab15580, Abcam, Paris, France) and secondary Donkey Anti-Goat IgG H&L conjugated to Alexa Fluor® 568 (ab175704, Abcam, Paris, France) ii) primary Mouse/Rat CD31/PECAM-1 Antibody (AF3628, Minneapolis, USA) and secondary Goat anti-Rabbit IgG H&L conjugated to Alexa Fluor 488 (A-11034, ThermoFisher, Villebon, France). Results are expressed as percentage of positive pixels, within islets where indicated. The quantification method is an automated observer-independent process based on section scanning and application of publicly available algorithms. Each biological replicate represents one slide per animal mounted with at least 3 tissue sections, representing 3 technical replicates, the mean and variance of which is presented as the result per biological replicate. All images were acquired on an Axiovert 200M microscope (Zeiss, Marly-le-Roi, France).

In the case of `Cc1ccc(O)cc1` [4-cresol], the “cell proliferation (Ki 67 labeling) in pancreas” value in assay [1] was “increased cell proliferation”. For the same molecule, the insulin positive area entry in assay [1] is reported as “significant increase”; in assay [2] (mice fed CHD, statistically significant), 185.40±22.95; in assay [2] (mice fed HFD, not statistically significant), 171.90±21.62. In addition, the results for the “islet size (immunohistochemistry)” value in assay [2] (CHD fed mice) and in assay [2] (HFD fed mice) were 153.60±14.18 and 170.00±12.56, respectively. The “number of proliferative nuclei (KI67) in pancreas” value in assay [2] (CHD-fed mice) is “significantly increased”; in assay [2] (HFD-fed mice), “remained elevated”. Further, in assay [2] (HFD fed mice, P=0.009, to the level of saline-treated CHD-fed controls), the “reduction in liver fat content (Oil-Red-O staining)” value stood at 40.7%. Further, in assay [2] (both groups fed CHD or HFD), the “CD31 positive cells (pancreas vascularization)” value is on record as “further significant increase”. In assay [2] (mice fed CHD), the “liver fat content (Oil-Red-O staining)” value is “reduced”. The islet density entry in assay [2] (mice fed CHD or HFD, significant only in CHD-fed mice) is reported as “strong increase”.
